The source of these data is US5968751A, “Method for detecting the presence of protein C antibody in a fluid sample” (The Scripps Research Institute, priority 1997, dated 1999).

This experiment has as its target APC (Homo sapiens, UniProt P04070). The experiment can be described thus: Xa-1-stage coagulation assay, inhibition of APC anticoagulant activity. The class given is biochemical. The arrangement: Protein C consists of a 155 amino acid residue light chain and a 262 amino acid residue heavy chain; from tissue; host or cells: human plasma factor IX concentrate. On the procedure: For testing the inhibition of the synthetic peptides on APC activity described above, Xa-1-stage coagulation assays were also performed as described. See Seegers et al., Thrombosis Res., 13:233-243 (1978); Marlar et al., supra; and Walker et al., J. Biol. Chem., 265:1484-1489 (1990). PC heavy chain-derived peptides listed below in Table 6 and PC light chain-derived peptides listed below in Table 7 were prepared as described above and separately admixed for a final concentration of 2 mM with 120 nM APC in 100 μl of TBS-BSA at pH 7.4 to form separate peptide-APC admixtures. The resulting admixtures were maintained for ten minutes at 37° C. Separate aliquots of peptides maintained under the same conditions in the absence of APC served as controls for the inhibitory effect of synthetic peptides on APC anticoagulant activity. After the maintenance period, 100 μl of NHP and 100 μl of 200 μg/ml of rabbit brain cephalin (Sigma) were admixed into each peptide admixture and maintained for 200 seconds at 37° C. to form pre-coagulation admixtures. In some experiments, Factor VIII deficient plasma (George King Bio-Medical, Inc.) was used in the place of NHP to determine the effect of Factor VIII on the assay system. Coagulation was then initiated by the admixture of 100 μl of 0.62 nM human activated Factor X (Xa) (Enzyme Research Laboratories, Southbend, Ind.) in TBS-BSA containing 30 mM CaCl2 prewarmed to 37° C. to each of the pre-coagulation admixtures.
The time for clot formation was measured by an Electra 700 Automatic Coagulation Timer (Medical Laboratory Automation, Inc., Mount Vernon, N.Y.). Each peptide's effect was determined in duplicate. The results of the inhibition of APC anticoagulant activity by synthetic peptides as measured in Xa-1-stage coagulation assays are presented in Tables 6 and 7 below with the APTT assay results and are presented as the mean values obtained with APTT assays. Data for results with PC heavy chain-derived peptides are shown in Table 6 and data for results with PC light chain-derived peptides are shown in Table 7.
The results of inhibition of APC anticoagulant activity by PC light chain-derived peptides in a Xa-1 stage coagulation assay are shown in Table 7. The assay was performed in the presence of NHP. Peptides used in the assay were prepared as described in Example 1 and are listed in Table 7 by their corresponding residue positions in native PC protein (SEQ ID NO 1). For all peptides except PC142-155 used in the Xa-1 stage assays listed in Table 7, cysteine residues in the native PC amino acid residue sequence were substituted by either serine or glycine in the synthesized peptide. This was done to prevent multiple disulfide formation and subsequent potential polymerization among peptides with multiple cysteines. […]

Chain of APC (P04070 43-197 limits assumed): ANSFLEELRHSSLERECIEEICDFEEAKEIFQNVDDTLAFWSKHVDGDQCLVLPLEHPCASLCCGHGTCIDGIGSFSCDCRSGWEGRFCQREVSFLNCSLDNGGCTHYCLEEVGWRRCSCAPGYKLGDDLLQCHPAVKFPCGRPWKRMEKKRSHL
Chain of APC (P04070 212-450 limits assumed): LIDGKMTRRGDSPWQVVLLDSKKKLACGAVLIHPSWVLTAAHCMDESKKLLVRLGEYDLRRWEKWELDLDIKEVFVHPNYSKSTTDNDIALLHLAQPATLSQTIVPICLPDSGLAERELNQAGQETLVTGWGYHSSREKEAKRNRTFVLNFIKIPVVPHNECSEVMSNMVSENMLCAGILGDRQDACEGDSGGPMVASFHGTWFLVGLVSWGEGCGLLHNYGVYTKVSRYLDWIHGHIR

As usually defined, the inhibition is the percentage by which the read-out fell short of the control. `CSCC[C@H](NC(=O)[C@H](CCCNC(=N)N)NC(=O)[C@H](CCCCN)NC(=O)[C@H](Cc1c[nH]c2ccccc12)NC(=O)[C@@H]1CCCN1C(=O)[C@H](CCCNC(=N)N)NC(=O)CN)C(=O)N[C@@H](CCC(=O)O)C(=O)N[C@@H](CCCCN)C(=O)N[C@@H](CCCCN)C(=O)N[C@@H](CCCNC(=N)N)C(=O)N[C@@H](CO)C(=O)N[C@@H](Cc1c[nH]cn1)C(=O)N[C@@H](CC(C)C)C(=O)N[C@@H](CS)C(N)=O` [PC142-155, Gly-Arg-Pro-Trp-Lys-Arg-Met-Glu-Lys-Lys-Arg-Ser-His-Leu]: the IC50 (Xa-1-stage assay in NHP, read-out: 50% inhibition of APC anticoagulant activity) amounted to 25 µM. Also, 500 µM produced 80% inhibition (final peptide concentration 500 μM, NHP, 0 = no observable effect +10%).

On to “MHKLREGKWRPKSR [Scrambled peptide, reference compound]”, for which the “inhibition of APC anticoagulant activity” value (Xa-1-stage assay) is listed as “very little if any significant inhibition”.
